Laboratory results taken from article PMC12238723, “Phase I Clinical Trial of CVL218, a Novel PARP1/2 Inhibitor, in Patients with Advanced Solid Tumors” (MedComm, 2025).

Tested on: patients with advanced solid tumors
Test: Treatment-related adverse events (CTCAE v5.0), phase I dose escalation
Assay type: in vivo
Source text: This study was a single‐arm, dose‐escalation phase I trial conducted in Sun Yat‐sen University Cancer Center in China. This study assessed CVL218 in patients with histologically or cytologically confirmed advanced solid tumors who were in PD after standard therapeutic regimens or lacked standard treatment options. Inclusion criteria included: age 18–75 years; with at least one measurable and evaluable target lesion per Response Evaluation Criteria in Solid Tumors 1.1 (RECIST 1.1); ECOG performance status of 0 or 1; adequate hematological, renal, cardiac, and hepatic functions and a life expectancy ≥12 weeks. Key exclusion criteria included prior usage of PARP inhibitors; allergic to the research drug or its components; with active, unstable systemic diseases or active, uncontrolled infection; a history of other malignancies within 5 years, and pregnant or lactating women.
CVL218 was administered orally, and this dose‐escalation trial included nine dose levels: 100 mg QD (50 mg BID), 200 mg QD (100 mg BID), 400 mg QD (200 mg BID), 700 mg QD (350 mg BID), 1000 mg QD (500 mg BID), 1200 mg QD (600 mg BID), 1400 mg QD (700 mg BID), 1700 mg QD (850 mg BID), and 2000 mg QD (1000 mg BID). Patients enrolled in the study received a single oral dose on the first day, followed by continuous multiple dosing (twice a day taking 12 h apart) after 72 h, with the treatment cycle lasting 4 weeks. The period during which patients received a single dose is designated as cycle 0 (C0), lasting 72 h. After this period, patients begin multiple dosing, referred to as cycle 1 (C1). An initial accelerated titration design was employed for the three lowest dose groups, and the “3+3” design was applied starting with the 300 mg BID cohort.
The primary objectives were to assess safety and tolerability as well as to determine the MTD, DLT, and dose recommended for further study. DLT was defined as any of the following events occurring during cycle 0 (including 72 h wash‐out period after a single dose) and cycle 1 per Common Terminology Criteria for Adverse Events (CTCAE) version 5.0: grade 4 anemia; grade 4 neutropenia; grade 3 neutropenia with fever ≥38.5°C; grade 4 thrombocytopenia; grade 3 thrombocytopenia associated with bleeding; grade ≥2 neurotoxicity; any other grade ≥3 nonhematological toxicities (excluding alopecia). The secondary objectives were to assess the PK and preliminary efficacy of CVL218.
Subjects who received at least one dose of CVL218 with postadministration safety records were included in safety analysis set. Subjects who received at least one dose of CVL218 with at least one evaluable PK parameter were included in PK analysis set. Per‐protocol set were used for efficacy analysis. Descriptive statistics of safety were presented per CTCAE v5.0. The PK parameters T max and T 1/2 were shown as the median (min, max) and mean ± SD, respectively. A two‐sided p < 0.05 was considered to indicate statistical significance. Statistical analysis was performed by using GraphPad prism 8.0.2 and R‐4.3.3.

CNCc1ccc(-c2cc3cc(F)cc(C(N)=O)c3o2)cc1.Cl [CVL218]
Infusion site pain (50 mg BID, ALL): 0 n (%)
WBC count increased (50 mg BID, ALL): 0 n (%)
ALT increased (50 mg BID, ≥G3): 0 n (%)
AST increased (50 mg BID, ≥G3): 0 n (%)
Abdominal distension (50 mg BID, ≥G3): 0 n (%)
Abdominal pain (50 mg BID, ≥G3): 0 n (%)
Abdominal pain upper (50 mg BID, ≥G3): 0 n (%)
Amylase increased (50 mg BID, ≥G3): 0 n (%)
Anemia (50 mg BID, ≥G3): 0 n (%)
Any AE related to study drug (50 mg BID, ≥G3): 0 n (%)
Asthenia (50 mg BID, ≥G3): 0 n (%)
Blood creatinine increased (50 mg BID, ≥G3): 0 n (%)
Blood system disorders (50 mg BID, ≥G3): 0 n (%)
Blood triglycerides increased (50 mg BID, ≥G3): 0 n (%)
Blood urea increased (50 mg BID, ≥G3): 0 n (%)
Cardiac disorders (50 mg BID, ≥G3): 0 n (%)
Chest discomfort (50 mg BID, ≥G3): 0 n (%)
Constipation (50 mg BID, ≥G3): 0 n (%)
Decreased appetite (50 mg BID, ≥G3): 0 n (%)
Diarrhea (50 mg BID, ≥G3): 0 n (%)
Dizziness (50 mg BID, ≥G3): 0 n (%)
Erectile dysfunction (50 mg BID, ≥G3): 0 n (%)
Gastrointestinal disorders (50 mg BID, ≥G3): 0 n (%)
General disorders (50 mg BID, ≥G3): 0 n (%)
Gingival bleeding (50 mg BID, ≥G3): 0 n (%)
Granulocyte count increased (50 mg BID, ≥G3): 0 n (%)
Headache (50 mg BID, ≥G3): 0 n (%)
Hypoalbuminemia (50 mg BID, ≥G3): 0 n (%)
Infusion site pain (50 mg BID, ≥G3): 0 n (%)
Laboratory test disorders (50 mg BID, ≥G3): 0 n (%)
Limb discomfort (50 mg BID, ≥G3): 0 n (%)
Lipase increased (50 mg BID, ≥G3): 0 n (%)
Metabolic disorders (50 mg BID, ≥G3): 0 n (%)
Musculoskeletal discomfort (50 mg BID, ≥G3): 0 n (%)
Musculoskeletal disorders (50 mg BID, ≥G3): 0 n (%)
Nausea (50 mg BID, ≥G3): 0 n (%)
Nervous system disorders (50 mg BID, ≥G3): 0 n (%)
Neutrophil count decreased (50 mg BID, ≥G3): 0 n (%)
Neutrophil count increased (50 mg BID, ≥G3): 0 n (%)
Palpitations (50 mg BID, ≥G3): 0 n (%)
Protein urine present (50 mg BID, ≥G3): 0 n (%)
Proteinuria (50 mg BID, ≥G3): 0 n (%)
Rash (50 mg BID, ≥G3): 0 n (%)
Renal & urinary disorders (50 mg BID, ≥G3): 0 n (%)
Renal failure (50 mg BID, ≥G3): 0 n (%)
Reproductive disorders (50 mg BID, ≥G3): 0 n (%)
Skin disorders (50 mg BID, ≥G3): 0 n (%)
Urinary occult blood positive (50 mg BID, ≥G3): 0 n (%)
Vomiting (50 mg BID, ≥G3): 0 n (%)
WBC count decreased (50 mg BID, ≥G3): 0 n (%)
WBC count increased (50 mg BID, ≥G3): 0 n (%)
Infusion site pain (100 mg BID, ALL): 0 n (%)
WBC count increased (100 mg BID, ALL): 0 n (%)
ALT increased (100 mg BID, ≥G3): 0 n (%)
AST increased (100 mg BID, ≥G3): 0 n (%)
Abdominal distension (100 mg BID, ≥G3): 0 n (%)
Abdominal pain (100 mg BID, ≥G3): 0 n (%)
Abdominal pain upper (100 mg BID, ≥G3): 0 n (%)
Amylase increased (100 mg BID, ≥G3): 0 n (%)
Anemia (100 mg BID, ≥G3): 0 n (%)
Any AE related to study drug (100 mg BID, ≥G3): 0 n (%)
Asthenia (100 mg BID, ≥G3): 0 n (%)
Blood creatinine increased (100 mg BID, ≥G3): 0 n (%)
Blood system disorders (100 mg BID, ≥G3): 0 n (%)
Blood triglycerides increased (100 mg BID, ≥G3): 0 n (%)
Blood urea increased (100 mg BID, ≥G3): 0 n (%)
Cardiac disorders (100 mg BID, ≥G3): 0 n (%)
Chest discomfort (100 mg BID, ≥G3): 0 n (%)
Constipation (100 mg BID, ≥G3): 0 n (%)
Decreased appetite (100 mg BID, ≥G3): 0 n (%)
Diarrhea (100 mg BID, ≥G3): 0 n (%)
Dizziness (100 mg BID, ≥G3): 0 n (%)
Erectile dysfunction (100 mg BID, ≥G3): 0 n (%)
Gastrointestinal disorders (100 mg BID, ≥G3): 0 n (%)
General disorders (100 mg BID, ≥G3): 0 n (%)
Gingival bleeding (100 mg BID, ≥G3): 0 n (%)
Granulocyte count increased (100 mg BID, ≥G3): 0 n (%)
Headache (100 mg BID, ≥G3): 0 n (%)
Hypoalbuminemia (100 mg BID, ≥G3): 0 n (%)
Infusion site pain (100 mg BID, ≥G3): 0 n (%)
Laboratory test disorders (100 mg BID, ≥G3): 0 n (%)
Limb discomfort (100 mg BID, ≥G3): 0 n (%)
Lipase increased (100 mg BID, ≥G3): 0 n (%)
Metabolic disorders (100 mg BID, ≥G3): 0 n (%)
Musculoskeletal discomfort (100 mg BID, ≥G3): 0 n (%)
Musculoskeletal disorders (100 mg BID, ≥G3): 0 n (%)
Nausea (100 mg BID, ≥G3): 0 n (%)
Nervous system disorders (100 mg BID, ≥G3): 0 n (%)
Neutrophil count decreased (100 mg BID, ≥G3): 0 n (%)
Neutrophil count increased (100 mg BID, ≥G3): 0 n (%)
Palpitations (100 mg BID, ≥G3): 0 n (%)
Protein urine present (100 mg BID, ≥G3): 0 n (%)
Proteinuria (100 mg BID, ≥G3): 0 n (%)
Rash (100 mg BID, ≥G3): 0 n (%)
Renal & urinary disorders (100 mg BID, ≥G3): 0 n (%)
Renal failure (100 mg BID, ≥G3): 0 n (%)
Reproductive disorders (100 mg BID, ≥G3): 0 n (%)
Skin disorders (100 mg BID, ≥G3): 0 n (%)
Urinary occult blood positive (100 mg BID, ≥G3): 0 n (%)
Vomiting (100 mg BID, ≥G3): 0 n (%)
WBC count decreased (100 mg BID, ≥G3): 0 n (%)
WBC count increased (100 mg BID, ≥G3): 0 n (%)
Infusion site pain (200 mg BID, ALL): 1 (100) n (%)
WBC count increased (200 mg BID, ALL): 0 n (%)
ALT increased (200 mg BID, ≥G3): 0 n (%)
AST increased (200 mg BID, ≥G3): 0 n (%)
Abdominal distension (200 mg BID, ≥G3): 0 n (%)
Abdominal pain (200 mg BID, ≥G3): 0 n (%)
Abdominal pain upper (200 mg BID, ≥G3): 0 n (%)
Amylase increased (200 mg BID, ≥G3): 0 n (%)
Anemia (200 mg BID, ≥G3): 0 n (%)
Any AE related to study drug (200 mg BID, ≥G3): 0 n (%)
Asthenia (200 mg BID, ≥G3): 0 n (%)
Blood creatinine increased (200 mg BID, ≥G3): 0 n (%)
Blood system disorders (200 mg BID, ≥G3): 0 n (%)
Blood triglycerides increased (200 mg BID, ≥G3): 0 n (%)
Blood urea increased (200 mg BID, ≥G3): 0 n (%)
Cardiac disorders (200 mg BID, ≥G3): 0 n (%)
Chest discomfort (200 mg BID, ≥G3): 0 n (%)
Constipation (200 mg BID, ≥G3): 0 n (%)
Decreased appetite (200 mg BID, ≥G3): 0 n (%)
Diarrhea (200 mg BID, ≥G3): 0 n (%)
Dizziness (200 mg BID, ≥G3): 0 n (%)
Erectile dysfunction (200 mg BID, ≥G3): 0 n (%)
Gastrointestinal disorders (200 mg BID, ≥G3): 0 n (%)
General disorders (200 mg BID, ≥G3): 0 n (%)
Gingival bleeding (200 mg BID, ≥G3): 0 n (%)
Granulocyte count increased (200 mg BID, ≥G3): 0 n (%)
